A short description of series [1]: Solubility in distilled water at room temperature. It is filed as physicochemical. Here is the method:
The melting point of the clear swainsonine hydrochloride crystal (prism) was 190-191° C. The solubility of swainsonine hydrochloride in distilled water at room temperature was about 3 g/ml, in contrast to the solubility of swainsonine free base, which is about 0.8 g/ml (see Table 5).

Series [2] in a line: Accelerated stability of stressed solid samples, percentage remaining by HPLC. It is filed as physicochemical. The text has this: Samples of swainsonine free base synthesized using synthetic routes developed by Dr. David Dime (Toronto Research Chemicals, Toronto, Ontario) and Dr. William Pearson (University of Michigan, Ann Arbor, Mich.), were recrystallized to obtain either the hydrochloride salt, the hydrobromide salt or the free base of swainsonine. Samples were weighed and exposed to the conditions described below.
To model long-term stability or shelf life, various conditions were used to accelerate the decomposition process. Samples of crystalline prism swainsonine hydrochloride salt and swainsonine free base (a white, fluffy powder obtained from swainsonine hydrochloride were recrystallized from chloroform-methanol-diethyl ether) were weighed and exposed to conditions described below (stressed samples). Unstressed samples were prepared at 1 mg/ml concentration and chromatographed in sextuplicate on each run. After the indicated time interval each stressed sample was diluted with mobile phase at the same concentration as the unstressed sample. The percentage remaining swainsonine hydrochloride or swainsonine free base was calculated based on the percentage of either the hydrochloride or the free base in the unstressed sample.
The conditions included (a) UV light for 7 days; (b) 105° C. with atmospheric oxygen for seven days (*=average of two samples); (c) 105° C. under nitrogen for seven days (*=average of two samples); (d) 70° C. with low humidity for seven days; and (e) 40° C. with 75% relative humidity for seven days. Other tests include (f) UV for 24 hours; (g) 100° C. aqueous solution for two hours; (h) aqueous acidic treatment for 24 hours; (i) aqueous alkali treatment for 4 hours; and (j) (aqueous) 3% hydrogen peroxide for 4 hours. […] The physical properties of swainsonine hydrochloride compared to the free base and swainsonine hydrobromide, and swainsonine hydrofluoride are shown in Table 5.

Series [3] in a line: Preformulation pH stability study in buffered solutions. It is filed as physicochemical. The settings on record: pH 4 and 7, ambient and stressed (40° C. and 50° C.) storage. The method, then: Preformulation studies of swainsonine hydrochloride, bulk drug substance, and in combination with powder and semisolid fill gelatin capsules were conducted with respect to the following: hygroscopicity, pH, stability, and solubility. […] At 20% and 50% RH it absorbed 1.9% and 2.1% of water by Karl Fischer after 48 hours of storage. The moisture uptake diminishes when anhydrous powder excipients (e.g. lactose anhydrous and mannitol powder) are used to formulate the pharmaceutical active into a hard capsule.

The test system of series [4] is SP1.A3a mouse mammary adenocarcinoma. Briefly: SP1.A3a tumor growth in mice, Alzet mini-osmotic pump. The settings on record: for difference in mean tumour volume between control and treatment groups: 0.5 mg/kg/day via osmotic pump over 28 days. It is filed as in vivo, CBA/J mice. Here is the method:
A metastatic subclone of the SP1 tumor line (A3a), mouse mammary adenocarcinoma was maintained in exponential growth in RPMI 1640 containing 10% FBS. The cells were harvested and resuspended at 1×10^6/ml or 1×10^7/ml in PBS and 0.1 ml containing 1×10^5 injected S.C. into the right flank of 7 week old female CBA/J mice (Jackson Laboratories). Alzet mini-osmotic pumps were implanted subcutaneously, on the opposite side of anesthetized animals. The pumps were primed to deliver saline (control) or 0.5 mg/kg/day of swainsonine hydrochloride over 28 days. Mice were monitored for the appearance of a palpable tumour and subsequent tumor growth was measured using bernier callipers. Tumor weights and the number of lung metastasis were measured on day 42.

The next series relates to STAT1. Briefly: STAT1 level and activation in mice (Western blot, immunoblotting). It is filed as in vivo, DBA/2 mice. In general terms: A western blot detects proteins with antibodies after separation by electrophoresis.
The next series deals with T1, lysosomal mannosidase (Homo sapiens, UniProt O00754).
T1 sequence (O00754 50-1011): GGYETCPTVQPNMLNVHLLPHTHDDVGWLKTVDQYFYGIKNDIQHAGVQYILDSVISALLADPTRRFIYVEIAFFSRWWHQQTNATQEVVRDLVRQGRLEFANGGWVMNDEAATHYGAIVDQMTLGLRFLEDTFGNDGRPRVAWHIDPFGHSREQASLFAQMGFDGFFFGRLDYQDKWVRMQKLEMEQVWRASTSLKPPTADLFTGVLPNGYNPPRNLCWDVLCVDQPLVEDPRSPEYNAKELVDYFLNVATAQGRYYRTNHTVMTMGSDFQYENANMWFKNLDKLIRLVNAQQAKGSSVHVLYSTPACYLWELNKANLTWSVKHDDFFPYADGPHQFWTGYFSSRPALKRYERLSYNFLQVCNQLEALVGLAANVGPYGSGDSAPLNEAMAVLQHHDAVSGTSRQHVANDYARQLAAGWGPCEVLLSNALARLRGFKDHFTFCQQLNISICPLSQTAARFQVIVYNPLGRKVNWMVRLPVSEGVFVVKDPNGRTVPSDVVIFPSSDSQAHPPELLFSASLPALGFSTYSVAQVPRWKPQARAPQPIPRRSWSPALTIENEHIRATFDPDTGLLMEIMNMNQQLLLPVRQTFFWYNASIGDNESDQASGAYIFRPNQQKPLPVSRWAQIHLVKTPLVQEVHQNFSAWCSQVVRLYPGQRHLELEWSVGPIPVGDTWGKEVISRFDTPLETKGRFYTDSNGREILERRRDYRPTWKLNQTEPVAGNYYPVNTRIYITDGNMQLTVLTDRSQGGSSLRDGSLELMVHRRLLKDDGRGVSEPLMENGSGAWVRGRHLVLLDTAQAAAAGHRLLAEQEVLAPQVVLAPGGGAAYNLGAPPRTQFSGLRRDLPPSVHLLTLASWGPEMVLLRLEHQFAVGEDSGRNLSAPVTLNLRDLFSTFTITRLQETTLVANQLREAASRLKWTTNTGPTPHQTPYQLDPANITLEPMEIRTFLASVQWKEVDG
Description: Inhibition of lysosomal mannosidase in vitro. It is filed as biochemical. The settings on record: pH 5.0, 60 min at 37° C. The method, then:
The effects of the compounds of the invention on lysosomal mannosidase were measured by adding (10 μl) of the compounds into 96 well Elisa plates followed by the addition of 200 mM sodium acetate pH 5.0 and 25 μl of 10 mM p-nitrophenyl α-D-mannospyranoside. 15 μl of lysosomal mannosidase ( about 8 mM/mL) was added to each well and the plates were incubated for 60 min at 37° C. The reaction was stopped by the addition of 50 μl of 0.5M sodium carbonate and formation of p-nitrophenol was measured with a plate set at 405.

The source of these data is US6395745B1, “Alkaloid halide salts of swainsonine and methods of use” (priority 1997, dated 2002).

Description for STAT1: To measure the level and activation of STATs, DBA/2 mice are treated for 6-9 days with 20 μg/mouse/day of swainsonine hydrochloride followed by a single intraperitoneal (i.p) injection of either sterile saline or 100 μg of poly IC (i.e., dsRNA, a surrogate for virus) in sterile saline. Two hours later an optimal time for STAT activation, spleens of the mice are homogenized and cytosolic and nuclear cell extracts are prepared. STAT protein levels are measured in the cytosolic and nuclear fractions by Western blot analysis. STAT phosphorylation (i.e. activation) is measured following immunoprecipitation using anti-phosphotyrosine antibodies.
DBA/2 mice received daily ip injections of SW hydrochloride (20 μg/day) for 10 days. On day 11 the mice were injected with Poly IC (100 μg/mouse) or an equivalent volume of PBS 2 h before being sacrificed. Spleen and liver tissues were collected and immediately frozen in liquid nitrogen. Nuclear extracts were prepared and analyzed (8 μg) by immunoblotting with the indicated antibodies. […] Cytosol extracts were prepared and analyzed (20 μg) by immunoblotting with the indicated antibodies. Spleen nuclear extracts were prepared and analyzed (8 μg) by immunoblotting with anti-phosphotyrosine antibodies.

In general, IC50 refers to the concentration that inhibits the measured activity by half. Low readings indicate greater potency, high ones weaker potency. As to `Cl.O[C@H]1[C@H]2[C@H](O)CCCN2C[C@@H]1O` [swainsonine hydrochloride, (−)-(1S,2S,8R,8aR)-1,2,8-trihydroxyoctahydro-indolizidine hydrochloride salt], the “solubility in distilled water at room temperature” value is 3 g/mL in series [1] (Table 5) and “about 3 g/ml” in series [1] (distilled water, room temperature). Further, the “percentage remaining, condition (e)” value in series [2] (40° C. with 75% relative humidity for seven days) stood at 101.9%. In addition, in series [2] (70° C. with low humidity for seven days), the “percentage remaining, condition (d)” value worked out at 103.2%. In addition, the “percentage remaining, condition (c)” value in series [2] (105° C. under nitrogen for seven days (*=average of two samples)) was 101.2%. In addition, the “percentage remaining, condition (b)” value in series [2] (105° C. with atmospheric oxygen for seven days (*=average of two samples)) is 100.9%. The “percentage remaining, condition (a)” value in series [2] (UV light for 7 days) amounted to 99.4%. For the same compound, the “stability in buffered solutions” value in series [3] is recorded as “stable”. For the same compound, the “difference in mean tumour volume between control and treatment groups” value in series [4] (day 29 as printed) is listed as 27%; in series [4] (day 32) it was 35%; in series [4] (day 42), 32%. In series [4] (0.5 mg/kg/day via osmotic pump, 42 day sacrifice, control 7.35 g), this compound returned a mean tumour weight of 4.87 g. In addition, in series [4] (0.5 mg/kg/day via osmotic pump, day 42 sacrifice, control 1.8), the “incidence of lung metastasis, average” value came to 0.25 nodules/mouse. Besides, the “activation of STAT1 in spleen” value in the series on STAT1 (20 μg/day ip for 10 days, then Poly IC 100 μg/mouse, FIG. 10A) is reported as “increases the activation”. Also, in the series on STAT1 (20 μg/day ip, spleen), the “STAT1 cytosolic protein levels” value is “enhanced”. In addition, 45 ± 10 nM corresponded to half-maximal inhibition against lysosomal mannosidase (IC50).
